Results from ChEMBL document CHEMBL3227947, “Quantitative structure-activity relationship of 5-(X-benzyl)-2,4-diaminopyrimidines inhibiting bovine liver dihydrofolate reductase” (J Med Chem, 1979).

Molecular target: T1, Dihydrofolate reductase (Bos taurus) (UniProt P00376)
T1 sequence (whole entry): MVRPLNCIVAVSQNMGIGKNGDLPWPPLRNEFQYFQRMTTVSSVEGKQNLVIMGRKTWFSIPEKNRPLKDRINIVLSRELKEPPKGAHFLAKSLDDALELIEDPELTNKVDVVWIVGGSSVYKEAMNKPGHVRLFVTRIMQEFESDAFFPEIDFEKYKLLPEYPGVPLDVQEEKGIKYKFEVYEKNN
Description: Inhibition of bovine liver dihydrofolate reductase using dihydrofolic acid as substrate

| log(1/I50) | SMILES |
| --- | --- |
| 5.53 | Nc1ncc(Cc2cccc(C(F)(F)F)c2)c(N)n1 |
| 5.16 | CC(=O)Nc1ccc(Cc2cnc(N)nc2N)cc1[N+](=O)[O-] |
| 4.99 | Nc1ncc(Cc2ccc(OC(F)(F)F)cc2)c(N)n1 |
| 5.15 | COc1ccc(Cc2cnc(N)nc2N)cc1OC |
| 5.02 | COc1cccc(Cc2cnc(N)nc2N)c1 |
| 4.57 | Nc1ccc(Cc2cnc(N)nc2N)cc1 |
| 4.8 | Cc1ccc(Cc2cnc(N)nc2N)cc1 |
